System: T1, AChE
T1 construct: gene ace1; native; newly emerged adult males for these rows
Test: Ellman assay (DTNB, […] nm), […] substrate concentrations […]
Assay type: biochemical, Blattella germanica
Details: newly emerged adult males; pH 7.5; 30 °C

CC(=O)SCC[N+](C)(C)C [Acetylthiocholine iodide]
Km: 340 ± 49 µM
